In paper PMC6678097, “Machilin A Inhibits Tumor Growth and Macrophage M2 Polarization Through the Reduction of Lactic Acid” (Cancers, 2019):

Assays:
HCC-95 = assay: Cell viability, MTT assay; format: cell-based; conditions: Homo sapiens, HCC95, normoxic
Experimental: (§1) Human colon cancer cells (WiDr, DLD-1, RKO, and HT29) and murine Lewis lung carcinoma (LLC) cells were purchased from the American Type Culture Collection (Manassas, VA, USA). Human breast cancer MCF7 cells, human hepatocellular carcinoma cells (Huh-7, HepG2, and Hep3B), and human lung cancer cells (HCC-95 and NCI-H1793) were provided by the Korean Cell Line Bank (Seoul, Korea). The HCC-95 and NCI-H1793 cells were grown in a Roswell park memorial institute medium (RPMI) 1640 medium (HyClone^TM; GE Healthcare, Chicago, IL, USA). All other cells were grown in Dulbecco’s modified eagle medium (DMEM) supplemented with L-glutamine (200 mg/L), 10% (v/v) heat-inactivated fetal bovine serum (FBS; Sigma-Aldrich, St. Louis, MO, USA), and antibiotics (100 U/mL penicillin and 100 μg/mL streptomycin; Thermo Fisher Scientific, Waltham, MA, USA) in a humidified incubator at 37 °C and with 5% CO2 before the experiments. For induction of hypoxia condition (1% oxygen), the cells were cultured were cultured in the mixture of 94% nitrogen and 5% CO2/air at 37 °C for 24 h in cell culture incubator. Cytotoxicity of MA was evaluated using an MTT assay. Briefly, cells were incubated in 24-well plates with specified concentrations of MA for 24 or 48 h. Then, MTT solution (2.0 mg/mL) was added to each well. After 4 h of incubation at 37 °C and 5% CO2 in a cell culture incubator, the conditioned media were removed, and the amount of formazan crystals formed in living cells was estimated by measuring the absorbance at 540 nm using a microplate reader (Spectramax M2; Molecular Devices, CA, USA). The respective percentages of living cells were compared with a control treatment.

RKO = assay: Cell viability, MTT assay; format: cell-based; conditions: Homo sapiens, normoxic
Experimental: as §1

NCI-H1793 = assay: Cell viability, MTT assay; format: cell-based; conditions: Homo sapiens, normoxic
Experimental: as §1

WiDr = assay: Cell viability, MTT assay; format: cell-based; conditions: Homo sapiens, normoxic
Experimental: as §1

Huh7 = assay: Cell viability, MTT assay; format: cell-based; conditions: Homo sapiens, Huh-7, normoxic
Experimental: as §1

[1] = system: human liver cytochrome P450 1A1 (CYP1A1); conditions: cited from earlier work
HT29 colon cancer cells = assay: Colony formation assay; format: cell-based, human; conditions: three weeks
Experimental: (§2) Base agar (0.6%) was placed at the bottom of the 6-well culture plate. After 30 min at room temperature, top agar (0.4%) mixed with HT29 (1 × 10^4 cells) or Hep3B (1 × 10^4 cells) cells was added to the base agar. HT29 and Hep3B cells were incubated at 37 °C and 5% CO2 for three weeks. The colonies were stained using 0.005% crystal violet for 1 h after which they were photographed and counted.

Hep3B liver cancer cells = assay: Colony formation assay; format: cell-based, human; conditions: three weeks
Experimental: as §2

LLC tumors = assay: Tumor allograft model, LLC cells (tumor growth, immunohistochemistry); format: in vivo, C57BL/6 mice
Experimental: LLC and CT26 cells were suspended separately in PBS (5 × 10^5 cells/100 µL PBS) and inoculated in subcutaneously on the back of 7-week-old C57BL/6 mice and BALB/c mice respectively (Orient Bio Inc., Seongnam, Korea; n = 7). One day after the inoculation with tumor cells, mice of the control group (n = 7) were intraperitoneally administrated 100 µL of PBS per day for 18 days. Each of the MA-treated mice were intraperitoneally administrated 0.02, 0.2, or 1 mg MA, respectively, in 100 µL PBS per 20 g body weight, each day for 18 days. All mice were euthanized 19 days after inoculation with the tumor cells, and the tumors were excised and weighed. Length (l) and width (w) of each tumor were measured using a caliper, and the respective volume (V) was calculated according to the formula V = [(l × w^2)/2]. Tumors were immediately removed from euthanized mice and prepared for histological examinations. To test liver and kidney toxicity of MA, at the end of the in vivo allograft experiment blood was collected from each mouse and serum was separated. Biochemical analyses of aspartate aminotransferase (AST), alanine aminotransferase (ALT), creatinine, and blood urea nitrogen (BUN) were performed using a commercial service (Green Cross Co., Yongin, Korea). All experimental procedures followed the Guidelines for the Care and Use of Laboratory Animals of the National Institutes of Health of Korea, and were approved by the Institutional Animal Care and Use Committee of Pusan National University, Republic of Korea (PNU-2018-1954, Date of approval: 27th June 2018).
Tumor specimens were immediately removed from euthanized mice, fixed in PBS with 3.7% formalin, and embedded in paraffin for immunohistochemical analyses. The paraffin sections were immunostained using an antibody specific to the endothelial cell marker CD31 (ab28364, Abcam, Cambridge, UK), macrophage marker CD68 (ab125212, Abcam, Cambridge, UK), and M2 phenotype macrophage marker CD206 (ab64693, Abcam, Cambridge, UK). The staining was visualized using a Dako EnVision kit (Dako, Santa Clara, CA, USA), and counterstained with hematoxylin.

[2] = system: HT29 colorectal cancer cells; assay: Measurement of intracellular ATP; format: cell-based, human; conditions: machilin A 30 μM, hypoxia
Experimental: Intracellular ATP concentration was measured using an ATP bioluminescent somatic cell assay kit (Sigma-Aldrich) as previously described. A total of 1 × 10^6 cells were trypsinized and resuspended in ultrapure water. Luminescence was measured using a spectrofluometer (Spectramax M2, Molecular Devices, CA, USA) immediately after the addition of an ATP enzyme mix to the cell suspension.

[3] = system: human liver cytochrome P450 2B6; conditions: cited from earlier work
HT29 cells = assay: Mitochondrial ROS, MitoSOX FACS; format: cell-based, human; conditions: 24 h
Experimental: The production of mitochondrial ROS was determined by MitoSOX™ Red (Thermo Fisher Scientific, Waltham, MA, USA), respectively. Briefly, 5 μM MitoSOX™ Red was added to each cells cultured in conditioned medium and incubated at 37 °C for 10 min. The cells were then washed twice with PBS and the fluorescence intensity was analyzed using a BD FACS Canto II (BD Biosciences, San Jose, CA, USA) measuring excitation/emission at wavelength of 510/580 nm.

C[C@H](Cc1ccc2c(c1)OCO2)[C@@H](C)Cc1ccc2c(c1)OCO2 [MA, bis(3,4-methylenedioxy)-8,8’-lignan]
IC50 (HCC-95): 228 ± 13.9 µM
IC50 (RKO): 192 ± 15.2 µM
IC50 (NCI-H1793): 96.7 ± 5.32 µM
IC50 (WiDr): 17.2 ± 5.75 µM
IC50 (Huh7): 198 ± 26.7 µM
inhibitory effect on drug metabolism [1]: selective inhibitory effect
number of surviving colonies (HT29 colon cancer cells): significantly reduced
number of surviving colonies (Hep3B liver cancer cells): significantly reduced
expression of CD206 in macrophages in tumor tissues (LLC tumors; LLC tumors of mice): markedly inhibited
formation of new vessels in tumors (CD31) (LLC tumors; LLC tumors of mice): suppressed the formation of new vessels
presence of macrophages that infiltrated tumor tissues (CD68) (LLC tumors; LLC tumors of mice): no change
volume, weight, and size of tumors (LLC tumors; LLC, 1, 10, or 50 µg/g body weight intraperitoneally daily): significantly reduced
increase of adenosine triphosphate (ATP) synthesis in hypoxic condition [2]: significantly reduced
inhibitory effect on drug metabolism [3]: selective inhibitory effect
mitochondrial ROS (HT29 cells): induced mitochondrial ROS
